Experimental data published in patent US10098870B2 (JENKEM TECHNOLOGY CO., LTD. (BEIJING), priority 2013, dated 2018).
Several values for one entry are separate records, joined by “and”; a condition that tells them apart may be missing. Equal values may be shown once. Entries after “also recorded” stand apart in the source; their conditions may differ.

Experiments:
[1] = test system: human hepatoma cell Hep3B; experiment: Anti-tumor effect on xenograft tumor model of Hep3B in immune deficiency mice (Example 7); details: for T/C (%) RTV / T/C (%) TW: vs physiological saline; for RTV / Tumor weight: 44th day, Mean ± SEM; for Tumor volume: mean ± SE
Text: The tumor cells were passaged with digestion by trypsin-EDTA twice a week. The cells in the exponential growth phase were collected, counted, and used for inoculation.

[2] = test system: A549 human non-small cell lung cancer cells; experiment: Anti-tumor effect on xenograft tumor model of A549 in nude mice (Example 10); details: for T/C (%) RTV / T/C (%) TW: vs physiological saline; for RTV / Tumor weight: 52nd day, Mean ± SEM; for Tumor volume: mean ± SE;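 on all read-outs here: nude mice bearing A549 xenografts established by inoculating 1.0×10^7 cells in PBS at the right shoulder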
Experimental: A549 cells were cultured with a monolayer in vitro in RPMI1640 medium supplied with heat-inactivated fetal bovine serum with a volume ratio of 10%, and an incubator at 37° C. with the air containing CO2 with a proportion of 5%. The tumor cells were passaged with digestion by trypsin-EDTA twice a week. The cells in the exponential growth phase were collected, counted, and used for inoculation.
(§1) 1.0×10^7 of A549 tumor cells were suspended in 0.1 ml of PBS, inoculated to each nude mouse at the right shoulder, and there were totally 36 mice inoculated.

[3] = test system: Calu-6 human lung cancer cell; experiment: Anti-tumor effect on xenograft tumor model of Calu-6 in nude mice (Example 9); details: for T/C (%) RTV / T/C (%) TW: vs physiological saline; for RTV / Tumor weight: 42nd day, Mean ± SEM; for Tumor volume: mean ± SE;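 on all read-outs here: each nude mouse received 5.0×10^6 Calu-6 cells implanted at the right shoulder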
Experimental: Calu-6 cells were cultured with a monolayer in vitro in MEM medium supplied with heat-inactivated fetal bovine serum with a volume ratio of 10%, and an incubator at 37° C. with the air containing CO2 with a proportion of 5%. The tumor cells were passaged with digestion by trypsin-EDTA twice a week. The cells in the exponential growth phase were collected, counted, and used for inoculation.
5.0×10^6 of Calu-6 tumor cells were suspended in 0.1 ml of PBS, inoculated to each nude mouse at the right shoulder, and there were totally 34 mice inoculated.

[4] = Body weight, survival and tolerance of mice bearing A549 (Example 10); details: mean ± SE;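 further: nude mice, each given 1.0×10^7 A549 tumor cells in the right shoulder region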
Experimental: as §1

[5] = day 24 after inoculation, 30 mg/kg i.v. BIW×4W
[6] = day 24 after inoculation, 45 mg/kg i.v. QW×4W
[7] = day 28 after inoculation, 30 mg/kg i.v. BIW×4W
[8] = day 28 after inoculation, 45 mg/kg i.v. QW×4W
[9] = day 31 after inoculation, 30 mg/kg i.v. BIW×4W
[10] = day 31 after inoculation, 45 mg/kg i.v. QW×4W
[11] = day 35 after inoculation, 30 mg/kg i.v. BIW×4W
[12] = day 35 after inoculation, 45 mg/kg i.v. QW×4W
[13] = day 38 after inoculation, 30 mg/kg i.v. BIW×4W
[14] = day 38 after inoculation, 45 mg/kg i.v. QW×4W
[15] = day 42 after inoculation, 30 mg/kg i.v. BIW×4W
[16] = day 42 after inoculation, 45 mg/kg i.v. QW×4W
[17] = day 45 after inoculation, 30 mg/kg i.v. BIW×4W
[18] = day 45 after inoculation, 45 mg/kg i.v. QW×4W
[19] = day 49 after inoculation, 30 mg/kg i.v. BIW×4W
[20] = day 49 after inoculation, 45 mg/kg i.v. QW×4W

## monomethoxy polyethylene glycol (20K)-glutamic acid dipeptide-rapamycin conjugate [LPR-2]
[1]; 30 mg/kg i.v. BIW×4W
  TGD (to 1,000 mm^3): 17
  T/C (%) RTV: 54%
  T/C (%) TW: 46%
  RTV: 2.43 ± 0.19
  Tumor weight: 720 ± 94 mg
[1]; 45 mg/kg i.v. QW×4W
  TGD (to 1,000 mm^3): >17
  T/C (%) RTV: 42%
  T/C (%) TW: 40%
  RTV: 1.85 ± 0.17
  Tumor weight: 625 ± 84 mg
[1]; 5-FU 15 mg/kg, LPR-2 30 and 45 mg/kg
  anti-tumor effect (in words): slightly better than that of the 5-FU; also recorded: a common anti-tumor effect
[1]; day 16 after inoculation, 30 mg/kg i.v. BIW×4W
  Tumor volume: 454 ± 60 mm^3
[1]; day 16 after inoculation, 45 mg/kg i.v. QW×4W
  Tumor volume: 453 ± 56 mm^3
[1]; day 20 after inoculation, 30 mg/kg i.v. BIW×4W
  Tumor volume: 524 ± 47 mm^3
[1]; day 20 after inoculation, 45 mg/kg i.v. QW×4W
  Tumor volume: 490 ± 73 mm^3
[1]; day 23 after inoculation, 30 mg/kg i.v. BIW×4W
  Tumor volume: 622 ± 37 mm^3
[1]; day 23 after inoculation, 45 mg/kg i.v. QW×4W
  Tumor volume: 549 ± 83 mm^3
[1]; day 27 after inoculation, 30 mg/kg i.v. BIW×4W
  Tumor volume: 643 ± 45 mm^3
[1]; day 27 after inoculation, 45 mg/kg i.v. QW×4W
  Tumor volume: 589 ± 91 mm^3
[1]; day 30 after inoculation, 30 mg/kg i.v. BIW×4W
  Tumor volume: 689 ± 57 mm^3
[1]; day 30 after inoculation, 45 mg/kg i.v. QW×4W
  Tumor volume: 584 ± 87 mm^3
[1]; day 34 after inoculation, 30 mg/kg i.v. BIW×4W
  Tumor volume: 761 ± 82 mm^3
[1]; day 34 after inoculation, 45 mg/kg i.v. QW×4W
  Tumor volume: 608 ± 89 mm^3
[1]; day 37 after inoculation, 30 mg/kg i.v. BIW×4W
  Tumor volume: 899 ± 97 mm^3
[1]; day 37 after inoculation, 45 mg/kg i.v. QW×4W
  Tumor volume: 699 ± 102 mm^3
[1]; day 41 after inoculation, 30 mg/kg i.v. BIW×4W
  Tumor volume: 995 ± 126 mm^3
[1]; day 41 after inoculation, 45 mg/kg i.v. QW×4W
  Tumor volume: 733 ± 93 mm^3
[2]; 30 mg/kg i.v. BIW×4W
  TGD (to 1,000 mm^3): >7
  T/C (%) RTV: 10%
  T/C (%) TW: 8%
  RTV: 0.94 ± 0.11
  Tumor weight: 102 ± 15 mg
[2]; 45 mg/kg i.v. QW×4W
  TGD (to 1,000 mm^3): >7
  T/C (%) RTV: 11%
  T/C (%) TW: 10%
  RTV: 1.05 ± 0.11
  Tumor weight: 129 ± 20 mg
[2]; [5]
  Tumor volume: 140 ± 11 mm^3
[2]; [6]
  Tumor volume: 139 ± 11 mm^3
[2]; [7]
  Tumor volume: 131 ± 8 mm^3
[2]; [8]
  Tumor volume: 115 ± 8 mm^3
[2]; [9]
  Tumor volume: 134 ± 11 mm^3
[2]; [10]
  Tumor volume: 126 ± 10 mm^3
[2]; [11]
  Tumor volume: 124 ± 15 mm^3
[2]; [12]
  Tumor volume: 122 ± 13 mm^3
[2]; [13]
  Tumor volume: 131 ± 13 mm^3
[2]; [14]
  Tumor volume: 120 ± 13 mm^3
[2]; [15]
  Tumor volume: 122 ± 8 mm^3
[2]; [16]
  Tumor volume: 124 ± 9 mm^3
[2]; [17]
  Tumor volume: 131 ± 9 mm^3
[2]; [18]
  Tumor volume: 140 ± 11 mm^3
[2]; [19]
  Tumor volume: 128 ± 9 mm^3
[2]; [20]
  Tumor volume: 138 ± 14 mm^3
[2]; day 52 after inoculation, 30 mg/kg i.v. BIW×4W, 30 mg/kg
  Tumor volume: 127 mm^3 and 127 ± 6 mm^3
[2]; day 52 after inoculation, 45 mg/kg i.v. QW×4W, 45 mg/kg
  Tumor volume: 145 mm^3 and 145 ± 14 mm^3
[3]; 30 mg/kg i.v. BIW×4W
  TGD (to 1,000 mm^3): >8
  T/C (%) RTV: 31%
  T/C (%) TW: 28%
  RTV: 4.39 ± 0.59
  Tumor weight: 449 ± 89 mg
[3]; 45 mg/kg i.v. QW×4W
  TGD (to 1,000 mm^3): >8
  T/C (%) RTV: 38%
  T/C (%) TW: 37%
  RTV: 5.41 ± 0.51
  Tumor weight: 602 ± 83 mg
[3]; day 14 after inoculation, 30 mg/kg i.v. BIW×4W
  Tumor volume: 139 ± 18 mm^3
[3]; day 14 after inoculation, 45 mg/kg i.v. QW×4W
  Tumor volume: 137 ± 22 mm^3
[3]; day 17 after inoculation, 30 mg/kg i.v. BIW×4W
  Tumor volume: 160 ± 25 mm^3
[3]; day 17 after inoculation, 45 mg/kg i.v. QW×4W
  Tumor volume: 152 ± 25 mm^3
[3]; day 21 after inoculation, 30 mg/kg i.v. BIW×4W
  Tumor volume: 201 ± 40 mm^3
[3]; day 21 after inoculation, 45 mg/kg i.v. QW×4W
  Tumor volume: 204 ± 38 mm^3
[3]; [5]
  Tumor volume: 241 ± 50 mm^3
[3]; [6]
  Tumor volume: 245 ± 40 mm^3
[3]; [7]
  Tumor volume: 274 ± 57 mm^3
[3]; [8]
  Tumor volume: 293 ± 44 mm^3
[3]; [9]
  Tumor volume: 335 ± 76 mm^3
[3]; [10]
  Tumor volume: 323 ± 45 mm^3
[3]; [11]
  Tumor volume: 422 ± 108 mm^3
[3]; [12]
  Tumor volume: 436 ± 74 mm^3
[3]; [13]
  Tumor volume: 504 ± 119 mm^3
[3]; [14]
  Tumor volume: 518 ± 87 mm^3
[3]; day 42 after inoculation, 30 mg/kg i.v. BIW×4W, 30 mg/kg
  Tumor volume: 627 ± 145 mm^3
[3]; day 42 after inoculation, 45 mg/kg i.v. QW×4W, 45 mg/kg
  Tumor volume: 720 ± 106 mm^3
[4]; [5]
  Body weight of animal: 21.6 ± 0.5 g
[4]; [6]
  Body weight of animal: 20.9 ± 0.3 g
[4]; [7]
  Body weight of animal: 20.9 ± 0.4 g
[4]; [8]
  Body weight of animal: 20.8 ± 0.1 g
[4]; [9]
  Body weight of animal: 21.4 ± 0.4 g
[4]; [10]
  Body weight of animal: 21.1 ± 0.2 g
[4]; [11]
  Body weight of animal: 21.8 ± 0.4 g
[4]; [12]
  Body weight of animal: 21.1 ± 0.3 g
[4]; [13]
  Body weight of animal: 21.6 ± 0.4 g
[4]; [14]
  Body weight of animal: 21.6 ± 0.3 g
[4]; [15]
  Body weight of animal: 22.5 ± 0.3 g
[4]; [16]
  Body weight of animal: 22.0 ± 0.3 g
[4]; [17]
  Body weight of animal: 22.2 ± 0.3 g
[4]; [18]
  Body weight of animal: 22.4 ± 0.3 g
[4]; [19]
  Body weight of animal: 22.0 ± 0.3 g
[4]; [20]
  Body weight of animal: 21.5 ± 0.3 g
[4]; day 52 after inoculation, 30 mg/kg i.v. BIW×4W
  Body weight of animal: 22.0 ± 0.3 g
[4]; day 52 after inoculation, 45 mg/kg i.v. QW×4W
  Body weight of animal: 22.1 ± 0.3 g
